The text below walks through data of PMC11851430, “Workflow for E3 Ligase Ligand Validation for PROTAC Development” (ACS Chemical Biology, 2025).

One data set addresses full-length AAK1 (Homo sapiens, UniProt Q2M2I8). Nature of the data set: NanoBRET target engagement assay, intact and permeabilized cells.
The next data set deals with T1, AURKA (Homo sapiens, UniProt O14965).
T1 sequence (O14965 1-403): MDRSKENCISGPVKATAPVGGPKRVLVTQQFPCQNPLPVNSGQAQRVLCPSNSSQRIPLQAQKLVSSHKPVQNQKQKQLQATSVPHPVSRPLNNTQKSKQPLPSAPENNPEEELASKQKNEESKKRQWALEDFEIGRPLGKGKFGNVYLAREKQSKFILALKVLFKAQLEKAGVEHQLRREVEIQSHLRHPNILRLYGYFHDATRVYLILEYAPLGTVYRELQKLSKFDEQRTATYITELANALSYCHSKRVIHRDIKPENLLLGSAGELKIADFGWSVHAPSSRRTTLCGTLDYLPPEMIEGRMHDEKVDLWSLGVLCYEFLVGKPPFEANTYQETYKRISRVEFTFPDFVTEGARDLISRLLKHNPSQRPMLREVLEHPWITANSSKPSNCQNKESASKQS
Described as above. The settings on record: mean of duplicates, ^a values estimated by extrapolation.

The test system of data set [1] is kinase protein levels in Jurkat cells. Nature of the data set: TMT-labeled quantitative proteomics. The settings on record: for log2FC (compound/DMSO): Jurkat; for kinase degradation / AURKA degradation in proteomic experiments: Jurkat cells, 1 μM, 6 h; for AURKA degradation in proteomic experiments: cutoff log2(fold change) ≥ 0.60. The data set is classed as cell-based, human. On the procedure:
cultured in RPMI (Thermo: 11875093) supplemented as mentioned above. Cells were seeded in 6 well plates (Greiner: 657160) at a cell density of 1·10 6 cells/well and left at 37 °C and 5% […]
50 µl of SDS Lysis Buffer (2% SDS, 50 mM TRIS pH 8.5, 10 mM TCEP, 40 mM CAA) was added to each sample. Cells were transferred into low binding reaction tubes (Eppendorf:
0030108116) and samples were boiled for 15 minutes at 95 °C and sonicated for 2 minutes.
Methanol/Chloroform Precipitation. 200 µl of methanol and 50 µl of chloroform were added to each sample reaction tube and mixed via vortex. 150 µl of milliQ-H2O were added and samples were vortexed further. Samples were centrifuged for 5 minutes at 15000 g and the aqueous layer above the interphase was removed. 150 µl of methanol was added, samples were vortexed and centrifuged for 10 minutes at 15000 g to precipitate the pellet. The aforementioned wash procedure was repeated twice before transferring the pellet to a new low bind reaction tube in which it was allowed to dry for 5 minutes.
Dissolving the Protein Pellet and Protein Quantification. 50 µl of digestion buffer (8 M Urea, 50 mM TRIS pH 8) was added to each sample before vortexing and shaking at 750 rpm at room temperature for 10 minutes to solubilize the pellet. Protein quantification via PierceTM BCA Protein Assay Kit (Thermo: 23225) was carried out according to manufacturer’s protocol.
Protein Digestion. Samples were diluted 1:2 with 50 mM TRIS pH 8.5 to reach a final concentration of 4 M Urea. Lys-C (Promega: VA1170) was added at a 1:100 enzyme/substrate ratio. Samples were agitated at 550 rpm and 37 °C for 3 h. Samples were further diluted with 50 mM TRIS pH 8.5 to a final concentration of 1 M Urea and Trypsin (Promega: V5280) was added at a 1:100 enzyme/substrate ratio. Samples were agitated overnight at 550 rpm and 37 °C. The digestion was stopped the following day via addition of TFA to a final concentration […]
Solid Phase Extraction via C18 Cartridges. Sep-Pak C18 Cartridges (Waters: WAT054955) were used for solid phase extraction of digested peptides. For preconditioning of C18 cartridges, 1 mL of methanol was added to each column followed by 1 mL of solution B (0.1% formic acid, 80% acetonitrile) and 1 mL of solution A (0.1% formic acid, ddH2O) twice. Samples […]
were loaded to their respective columns and once samples had passed, columns were washed twice with solution A to remove unwanted components from the loading step. Elution of samples was carried out via introduction of 40% and 60% acetonitrile steps. Samples were dried and snap frozen in liquid nitrogen.
TMT-Labeling. Desalted peptides were dried and resuspended in TMT-labeling buffer (200 mM EPPS pH 8.2, 20% acetonitrile). 10 μg of peptides per condition were subjected to TMT labeling with 1:2.5 peptide TMT ratio (w/w) for 1 h at room temperature. The labeling reaction was quenched by addition of hydroxylamine to a final concentration of 0.5% and incubation at room temperature for 15 minutes. Successful TMT labeling was verified by mixing equimolar ratios of peptides and subjecting the mix to single shot LC-MS/MS analysis. For high pH reversed phase fractionation on a Dionex analytical HPLC, 50 µg of pooled and purified TMT labelled samples were resuspended in 10 mM ammonium-bicarbonate (ABC), 5% acetonitrile, […]
particle size; Phenomenex) using a multistep gradient from 100% solvent A (5% acetonitrile, 10 mM ABC in water) to 60% solvent B (90% acetonitrile, 10 mM ABC in water) over 70 minutes. Eluting peptides were collected every 45 seconds into a total of 96 fractions, which were cross-concatenated into 24 fractions and dried in a vacuum concentrator and resuspended in 3% acetonitrile with 0.1% TFA for LC-MS analysis.
Mass spectrometry data acquisition. Tryptic peptides were analyzed on an Orbitrap Lumos coupled to an easy nLC 1200 (ThermoFisher Scientific) using a 35 cm long, 75 µm ID fused-

The mark [2] stands for this setting: AAK1 intact (IC50±sd)/μM, NanoBRET, intact cells, mean of duplicates, ^a values estimated by extrapolation.
The mark [3] stands for this setting: AAK1 permeabilized (IC50±sd)/μM, NanoBRET, permeabilized cells, mean of duplicates.
[4] abbreviates: AURKA intact (IC50±sd)/μM, intact cells.
Setting [5] is: AURKA permeabilized (IC50±sd)/μM, permeabilized cells.
Setting [6] is: protein UQCRHL;UQCRH, 1µM, set6.
[7] abbreviates: protein hCG_2014768;TMA7, 1µM, set6.
Setting [8] is: protein TRBV12-3;TRBV12-4, 1 µM, set1.2.

Structures are written as SMILES.

Sequence of full-length AAK1 (Q2M2I8 whole entry): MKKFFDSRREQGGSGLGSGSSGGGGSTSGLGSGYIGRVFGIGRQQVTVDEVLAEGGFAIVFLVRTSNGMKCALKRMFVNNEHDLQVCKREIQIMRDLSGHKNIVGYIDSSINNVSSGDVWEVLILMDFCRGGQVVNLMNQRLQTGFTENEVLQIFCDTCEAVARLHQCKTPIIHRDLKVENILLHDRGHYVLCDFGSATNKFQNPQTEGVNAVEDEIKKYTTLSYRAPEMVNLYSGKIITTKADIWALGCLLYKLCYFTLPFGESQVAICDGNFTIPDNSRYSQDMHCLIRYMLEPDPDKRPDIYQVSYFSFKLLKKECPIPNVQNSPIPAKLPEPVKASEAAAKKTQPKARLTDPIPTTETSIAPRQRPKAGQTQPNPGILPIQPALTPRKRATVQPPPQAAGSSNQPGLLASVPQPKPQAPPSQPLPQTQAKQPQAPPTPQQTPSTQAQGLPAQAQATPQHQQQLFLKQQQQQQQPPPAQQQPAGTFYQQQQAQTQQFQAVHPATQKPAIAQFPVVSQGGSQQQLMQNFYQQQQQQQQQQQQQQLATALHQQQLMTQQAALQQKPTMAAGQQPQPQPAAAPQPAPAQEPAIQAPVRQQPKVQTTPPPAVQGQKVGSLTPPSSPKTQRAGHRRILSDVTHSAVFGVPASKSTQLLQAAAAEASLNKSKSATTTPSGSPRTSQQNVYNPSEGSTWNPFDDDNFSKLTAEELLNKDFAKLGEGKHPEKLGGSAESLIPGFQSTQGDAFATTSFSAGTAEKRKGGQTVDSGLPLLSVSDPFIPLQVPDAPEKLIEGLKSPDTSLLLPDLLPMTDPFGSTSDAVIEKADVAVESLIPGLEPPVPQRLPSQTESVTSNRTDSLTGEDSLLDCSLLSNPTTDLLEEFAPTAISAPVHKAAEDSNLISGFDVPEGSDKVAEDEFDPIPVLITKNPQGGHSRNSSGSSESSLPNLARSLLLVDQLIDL
Method for AURKA: (§1) Compounds were pipetted at various concentrations using an Echo acoustic dispenser (Labcyte), immediately followed by Tracer K10 (Promega, Tracer DB ID: T000008) for AAK1 and Aurora A and VHL Tracer (Promega, Tracer DB ID: T000019) for VHL, at an optimum KD concentration chosen from TracerDB ( tracerdb.org), respectively.
(§2) To measure the BRET signal, the NanoBRET® NanoGlo Substrate (Promega:
(§3) N1573) was added as per the manufacturer’s protocol, and filtered luminescence was measured on a PHERAstar plate reader (BMG Labtech) equipped with a luminescence filter pair (450 nm BP filter (donor) and 610 nm LP filter (acceptor)). For NanoBRET® measurement in permeabilized cells, 25 nL of digitonin (0.05 μg/μL) was pipetted into each well using an
(§4) After incubation, the BRET signals were measured by a PHERAstar plate reader (BMG Labtech) following the same procedure as intact NanoBRET® measurement. Competitive displacement data were then normalized to controls and were plotted using GraphPad Prism 9 software employing a normalized 3-parameter curve fit with the following equation:
Method for full-length AAK1: as §1, §2, §3, §4

A word on the IC50: it is the concentration that inhibits the measured activity by half. Turning to `CC(C)(C)OC(=O)NCCCOCCOCCOCCCNC(=O)c1cc(Nc2cc(C3CC3)[nH]n2)nc(Nc2ccc(CC#N)cc2)n1` [5-L], the concentration for half-maximal inhibition (IC50) on full-length AAK1 (setting [2]) is 0.308 ± 0.032 µM; at full-length AAK1 (setting [3]), 0.07 ± 0.012 µM; at AURKA (setting [4]), around 19.7 µM; at AURKA (setting [5]), around 7.05 µM.
In the case of `CC(=O)N[C@H](C(=O)N1C[C@H](O)C[C@H]1C(=O)NCc1ccc(-c2scnc2C)cc1OCCOCCOCCOCCOCCC(=O)N1CCN(c2ccc(Nc3ncc(Cl)c(Nc4ccccc4C(N)=O)n3)cc2)CC1)C(C)(C)C` [6-e], the IC50 is 0.53 ± 0.246 µM on full-length AAK1 (setting [2]), 0.123 ± 0.02 µM against full-length AAK1 (setting [3]), around 2.2 µM on AURKA (setting [4]) and 0.861 ± 0.251 µM on AURKA (setting [5]).
Turning to `Cc1ncsc1-c1ccc(CNC(=O)[C@@H]2C[C@@H](O)CN2C(=O)[C@@H](NC(=O)CCCCCCN2CCN(c3ccc(Nc4ncc(Cl)c(Nc5ccccc5C(N)=O)n4)cc3)CC2)C(C)(C)C)cc1` [6-d], the half-maximal inhibitory concentration (IC50) was 0.1 ± 0.008 µM at full-length AAK1 (setting [2]), 0.053 ± 0.003 µM at full-length AAK1 (setting [3]), 0.372 ± 0.014 µM at AURKA (setting [4]) and 0.249 ± 0.011 µM on AURKA (setting [5]). Also, the “log2FC (compound/DMSO)” value in data set [1] (protein NUDT4, 1µM, set6) is reported as 0.05822; in data set [1] (protein TRAV8-2, 1µM, set6), -0.03607; in data set [1] (setting [6]) it was -0.2976; in data set [1] (setting [7]), -0.5377.
For the molecule `Cc1ncsc1-c1ccc(CNC(=O)[C@@H]2C[C@@H](O)CN2C(=O)[C@@H](NC(=O)CCOCCOCCNC(=O)c2cc(Nc3cc(C4CC4)[nH]n3)nc(Nc3ccc(CC#N)cc3)n2)C(C)(C)C)cc1` [5-a], the figures for the IC50 at full-length AAK1 (setting [2]), at full-length AAK1 (setting [3]) and at AURKA (setting [5]) were around 8.76 µM, 0.162 ± 0.002 µM and around 16.9 µM, respectively. Further, on full-length AAK1 (NanoBRET, intact cells, mean of duplicates, ^a values estimated by extrapolation), the “AAK1 intact (IC50±sd)/μM” value is given as “single-digit micromolar”. The “cell permeability / cell penetration” value at full-length AAK1 (as shown by the NanoBRET data (intact vs permeabilized cells)) is reported as “poor cell permeability”. Moreover, the “log2FC (compound/DMSO)” value is recorded as -0.04256 in data set [1] (protein NUDT4, 1 µM, set1.2); -0.1976 in data set [1] (protein PIGBOS1, 1 µM, set1.2); 0.04739 in data set [1] (protein TRAV8-2, 1 µM, set1.2); 0.03953 in data set [1] (setting [8]). Moreover, the “AURKA intact (IC50±sd)/μM” value on AURKA (intact cells) was “outside the assay window”.
Regarding `Cc1ncsc1-c1ccc(CNC(=O)[C@@H]2C[C@@H](O)CN2C(=O)[C@@H](NC(=O)CCOCCOCCOCCN2CCN(c3cc(Nc4cc(C5CC5)[nH]n4)nc(Nc4ccc(CC#N)cc4)n3)CC2)C(C)(C)C)cc1` [4-a], the IC50 at full-length AAK1 (setting [2]) was 0.21 ± 0.044 µM; on full-length AAK1 (setting [3]) it was 0.057 ± 0.004 µM; on AURKA (setting [4]), 3.68 ± 0.085 µM; on AURKA (setting [5]), 1.34 ± 0.271 µM. Besides, the kinase degradation result in data set [1] is “more kinases were degraded”. Also, the “AURKA degradation in proteomic experiments” value in data set [1] is listed as “degradation levels close to the set cutoff”. For the same molecule, the “log2FC (compound/DMSO)” value in data set [1] (protein NUDT4, 1 µM, set1.2) was -0.1286; in data set [1] (protein PIGBOS1, 1 µM, set1.2), -0.1403; in data set [1] (protein TRAV8-2, 1 µM, set1.2), 0.1127; in data set [1] (setting [8]), 0.03022.
Take `Cc1ncsc1-c1ccc(CNC(=O)[C@@H]2C[C@@H](O)CN2C(=O)[C@@H](NC(=O)CCOCCOCCOCCOCCN2CCN(c3ccc(Nc4ncc(Cl)c(Nc5ccccc5C(N)=O)n4)cc3)CC2)C(C)(C)C)cc1` [6-b]: the IC50 on full-length AAK1 (setting [2]) is 0.13 ± 0.003 µM; against full-length AAK1 (setting [3]) it was 0.055 ± 0.002 µM; on AURKA (setting [4]), 0.416 ± 0.031 µM; on AURKA (setting [5]), 0.254 ± 0.08 µM. Besides, the kinase degradation result in data set [1] is “more kinases were degraded”. In addition, in data set [1], the “AURKA degradation in proteomic experiments” value is on record as “degradation levels close to the set cutoff”. Also, the “log2FC (compound/DMSO)” value in data set [1] (protein NUDT4, 1 µM, set1.2) is recorded as 0.1389; in data set [1] (protein PIGBOS1, 1 µM, set1.2), -0.2513; in data set [1] (protein TRAV8-2, 1 µM, set1.2), -0.01025; in data set [1] (setting [8]), 0.04941.
`Cc1ncsc1-c1ccc(CNC(=O)[C@@H]2C[C@H](O)CN2C(=O)[C@@H](NC(=O)CCOCCOCCOCCOCCN2CCN(c3ccc(Nc4ncc(Cl)c(Nc5ccccc5C(N)=O)n4)cc3)CC2)C(C)(C)C)cc1` [6-b^neg]: the kinase degradation result in data set [1] is “inactive”. The “log2FC (compound/DMSO)” value is -0.02087 in data set [1] (protein NUDT4, 1µM, set6); 0.09325 in data set [1] (protein TRAV8-2, 1µM, set6); 0.1465 in data set [1] (setting [6]); -0.2041 in data set [1] (setting [7]).
With `CC(=O)N[C@H](C(=O)N1C[C@H](O)C[C@H]1C(=O)NCc1ccc(-c2scnc2C)cc1OCCOCCOCCOCCNC(=O)c1cc(Nc2cc(C3CC3)[nH]n2)nc(Nc2ccc(CC#N)cc2)n1)C(C)(C)C` [5-b], the IC50 at full-length AAK1 (setting [2]) was 0.299 ± 0.038 µM; at full-length AAK1 (setting [3]) it was 0.192 ± 0.005 µM; on AURKA (setting [4]), around 18.5 µM; at AURKA (setting [5]) it was around 7.78 µM.
With `CCOC(=O)c1cc(Nc2cc(C3CC3)[nH]n2)nc(Nc2ccc(CC#N)cc2)n1` [compound 5], the half-inhibitory concentration (IC50) at full-length AAK1 (setting [2]) was 0.012 ± 0.002 µM; at full-length AAK1 (setting [3]), 0.015 ± 0.002 µM; on AURKA (setting [4]), 0.577 ± 0.391 µM; on AURKA (setting [5]), 0.507 ± 0.079 µM.
Take `Cc1ncsc1-c1ccc(CNC(=O)[C@@H]2C[C@H](O)CN2C(=O)[C@@H](NC(=O)CCOCCOCCOCCN2CCN(c3cc(Nc4cc(C5CC5)[nH]n4)nc(Nc4ccc(CC#N)cc4)n3)CC2)C(C)(C)C)cc1` [4-a^neg]: the kinase degradation entry in data set [1] is “inactive”. Further, the “log2FC (compound/DMSO)” value was 0.1377 in data set [1] (protein NUDT4, 1µM, set6); -0.04256 in data set [1] (protein TRAV8-2, 1µM, set6); 0.1443 in data set [1] (setting [6]); -0.0883 in data set [1] (setting [7]).
Regarding `CC(C)(C)OC(=O)NCCOCCOCCOCCOCCC(=O)N1CCN(c2cc(Nc3cc(C4CC4)[nH]n3)nc(Nc3ccc(CC#N)cc3)n2)CC1` [4-L], the IC50 on full-length AAK1 (setting [2]) was 0.099 ± 0.011 µM; at full-length AAK1 (setting [3]), 0.023 ± 0.004 µM; at AURKA (setting [4]), 1.92 ± 0.07 µM; at AURKA (setting [5]), 0.63 ± 0.021 µM.
